Results reported in US9096853B2, “Modified siRNA molecules incorporating 5-fluoro-2′-deoxyuridine residues to enhance cytotoxicity” (U.S. Department of Veterans Affairs, priority 2012, dated 2015).
d = 2'-deoxy (DNA); r = 2'-OH (RNA)

Experiments:
Assay type in all cases: cell-based, human
[1] = tested on: thymidylate synthase (TS) protein; assay: Immunoblot analysis of TS protein (free and ITC-bound), Odyssey quantitation; details: RKO cells, 48 hr
Experimental: FIGS. 1A-B illustrate the effect of FdU incorporation in ssiRNA on TS protein expression. RKO cells were transfected with TS6 ssiRNAs (1 nM) containing various 3′-overhangs. After 6 hr, the medium was replaced. After an additional 48 hr, cells were harvested and processed for immunoblot and qPCR analysis as described in the Materials and Methods section. (A) Representative blot from 4 experiments. (B) All qPCR values represent the mean±S.D. from at least 3 separate experiments performed in triplicate. The normalized amount of TS mRNA from mock-transfected cells (LF2000) was set to 1.0 and all other values compared against that value. ITC, inhibitory ternary complex;
Cells were plated at a density of 1.5×10^5 cells/well. On the following day, ssiRNAs were complexed with Lipofectamine 2000 (LF2000, Invitrogen) in serum-free RPMI-1640 medium and added to the plated cells. After 48 hr, cells were rinsed with PBS and scraped in cell lysis buffer (10 mM Tris pH7.4, 150 mM NaCl, 1 mM EDTA, 1% IGEPAL, 0.5% sodium deoxycholate, and 0.1% SDS) containing freshly added Protease Inhibitor Cocktail (Sigma; St. Louis, Mo.), 1 mM phenylmethylsulfonyl fluoride, and phosphatase inhibitors (Sigma). Lysates were sonicated and then centrifuged at 14,000 rpm for 30 min at 4° C. to remove debris. Cell lysates were stored at −80° C. for future use. For mRNA analysis, total RNA was extracted using Trizol (Invitrogen) and stored at −80° C. for future use.
(§1) Protein concentrations of cell lysates were determined using the DC Protein Assay (Bio-Rad; Hercules, Calif.). Equal amounts of protein (30 μg) from each cell lysate were resolved on SDS-PAGE using the method of Laemmli (Reference 19) and transferred onto 0.45 μm nitrocellulose membranes (Bio-Rad). Membranes were blocked and incubated overnight with primary antibodies at 4° C. The following antibodies were used in the experiments: anti-TS (Clone 4H4B1; Invitrogen), anti-TS (#5449; Cell Signaling; San Francisco, Calif.), anti-p21 Waf1/Cip1 (#2947; Cell Signaling), anti-p53 (#sc-126; Santa Cruz Biotechnology; Santa Cruz, Calif.), anti-PARP (#9542; Cell Signaling), anti-Fas (#4233; Cell Signaling), anti-phospho-histone H2A.X (Ser139) (#2577; Cell Signaling), anti-histone H2A.X (#7631; Cell Signaling), anti-phospho-ATM (pS1981; EPITOMICS Inc.; Burlingame, Calif.), anti-ATM (#A1106; Sigma), and anti-α-tubulin (EMD Biosciences; San Diego, Calif.). After multiple TBST washes (1×TBS, 0.1% Tween-20), membranes were incubated with corresponding horseradish peroxidase-conjugated secondary antibodies (Bio-Rad) for 1 hr at room temperature. Proteins were detected by the enhanced chemiluminescence method (SuperSignal West Pico substrate; Pierce; Rockford, Ill.). Quantitation of signal intensities was performed by densitometry on a Xerox scanner using NIH IMAGEJ software.
Immunoblots were prepared as described above. After incubation with anti-TS polyclonal antibody, membranes were blocked with the Odyssey blocking buffer and incubated with IRDye 800CW goat anti-rabbit antibody (LI-COR Biosciences; Lincoln, Nebr., USA) according to the manufacturer instructions. The fluorescent signal was detected and quantified using the Odyssey infrared imaging system (LI-COR).

[2] = tested on: TS6 siRNA target sequence (TS mRNA nt 1058-1077) targeted by the antisense strand; assay: Luciferase assay, vector with TS6 target site for the antisense strand; details: RKO cells, ssiRNA 0.1 nM, 24 hr
Experimental: FIG. 3 illustrates the effect of 3′-end modification on ssiRNA strand selection. RKO cells were transfected with luciferase vectors (including the TS6 target site for either the antisense (open bars) or sense strand (hatched bars)) in combination with ssiRNAs containing different 3′-end overhangs. After 24 hr, cells were harvested and luciferase activity was determined as described in the Materials and Methods section. Firefly/renilla luciferase activity from vector-alone transfection was normalized to 100%. All values represent the mean±S.D. from at least 4 separate experiments performed in duplicate;
FIGS. 4A-C illustrate the effect of 3′-end dU incorporation on ssiRNA strand selection. RKO cells were transfected with various TS6 ssiRNAs (1 nM) for 6 hr. After an additional 48 hr, cells were harvested for immunoblot (A) and qPCR (B) analysis. (C) Luciferase vectors (containing the siRNA target site for either the sense or antisense strand) were transfected into RKO cells in combination with different ssiRNAs. After 24 hr, cells were harvested and luciferase activity was determined as described in the Materials and Methods section. Luciferase activity from vector-alone transfection was normalized to 100%. All values represent the mean±S.D. from at least 4 separate experiments performed in duplicate;
A DNA oligonucleotide corresponding to the TS6 siRNA target sequence (TS mRNA nt 1058-1077: 5′-[…]-3′- SEQ ID NO: 23) was annealed to its complimentary antisense sequence and ligated into the pGL3-Promoter plasmid (Promega; Madison, WI) at restriction sites Hind III and Nco I. The luciferase mRNA expressed from this plasmid was targeted by the antisense strand of TS6 siRNA. A second plasmid was constructed with the TS mRNA sequence inserted in the opposite orientation so that it could be targeted by the sense or passenger strand of TS6 siRNA. […] After 24 hr, cells were washed with PBS, lysed in 1×PLG buffer, and firefly and renilla luciferase levels were determined by the Dual-Luciferase™ Reporter Assay system (Promega). […]

[3] = tested on: p53, Fas, cleaved PARP, γH2AX, p-ATM; assay: Immunoblot of DNA damage and apoptosis signaling proteins, time course; details: RKO cells, ssiRNA 10 nM, 0-72 hr
Experimental: FIG. 5 illustrates time-dependent effects of FdU-containing ssiRNAs on protein expression. RKO cells were transfected with various TS6 ssiRNAs (10 nM). After 6 hr, the medium was replaced, and cells were harvested for immunoblot blot analysis at the following times: before39 transfection (pre) and 0, 24, 48, and 72 hr after transfection. Images shown are representative blots from at least 4 different experiments; and
as §1

[4] = tested on: thymidylate synthase (TS) protein; assay: Immunoblot analysis of TS protein (free and ITC-bound), Odyssey quantitation; details: RKO cells, ssiRNA 10 nM, pre vs. 0 hr

With “TS6-dU/dA: unmodified TS-targeted ssiRNA, 5 dU on 3′-end of sense strand, 5 dA on 3′-end of antisense strand; SEQ ID NO: 3 and 4 (sense GGAUAUUGUCAGUCUUUAGGUUUUU; antisense CCUAAAGACUGACAAUAUCCAAAAA; sense: sugars from the 5' end r20 d5, backbone and T or U not given here; antisense: sugars from the 5' end r20 d5, backbone not given here)” the “suppression of expression of TS protein” value ([1]; 1 nM) was about 80%, the “Free TS (%)” value ([1]; ssiRNA 1 nM, normalized to free TS protein in mock-transfected cells (LF2000) set to 100%, mean ± S.D., 6 experiments) was 22.6 ± 7.5% and the “antisense strand targeting, luciferase (in words)” value [2] was “maintained”. The “biomarkers of DNA damage, γH2AX and p-ATM” value [3] was “little to no effect” and the “TS protein levels immediately after transfection” value [4] was “minimally affected”.
